From patent publication US10745408B2, “Biologically active taxane analogs and methods of treatment by oral administration” (Tapestry Pharmaceuticals, Inc., priority 2007, dated 2020)
Like-named read-outs stand apart in the source and are kept apart here.

Assays:
SKNAS = assay: MTS proliferation assay, neuroblastoma SKNAS; type: cell-based; conditions: Homo sapiens, SK-N-AS
Method: (§1) MTS Proliferation Assay (Promega)
(§2) Day 1: Cells were plated in appropriate growth medium at 5×10^3 per well in 100 ul in 96 well tissue culture plates, Falcon, one for each drug to be tested. Col 1 was blank; it contained no cells, just medium. The plates were incubated overnight at 37° C., 5% CO2 to allow attachment.
(§3) Day 2: Added 120 ul growth medium in wells of 96-well “dilution plates” (one for each drug) and let sit in 37° C. incubator for about 1 hr.
(§4) Thawed DMSO drug stocks (usually at 10 mM). Each drug was diluted 6 ul into a tube with 3 ml growth medium, to 20 μM.
(§5) Aspirated medium from col 12 of a dilution plate; added 200-300 ul of 20 uM drug to wells of col 12. Made serial dilution down this 96-well plate: for a […] dilution pattern, moved 60 ul from col 12 to col 11, mixed 4-5 times (using 8 place multi-pipettor), moved 60 ul to col 10, etc. stopping at col 3.
(§6) Moved 100 ul of medium+drug from dilution plate to a cell plate, i.e. col 1 from drug plate (blank=no cells) to col 1 of cell plate, etc. up to col 12. Col 2 contained cells with no drug. […]
(§7) Day 4 or 5: Terminated the assay 48 to 72 hrs after drug addition. […] When the color turned dark in control wells (col 2), and was still light in col 12, the absorbance at 490 nm was read on a plate reader; the results were used to calculate IC50.

FADU = assay: MTS proliferation assay, head/neck FADU; type: cell-based; conditions: Homo sapiens
Method: as §1, §2, §3, §4, §5, §6, §7

DU145 = assay: MTS proliferation assay, prostate DU145; type: cell-based; conditions: Homo sapiens, DU-145
Method: as §1, §2, §3, §4, §5, §6, §7

KB = assay: MTS proliferation assay, head/neck KB; type: cell-based; conditions: Homo sapiens
Method: as §1, §2, §3, §4, §5, §6, §7

MESSA = assay: MTS proliferation assay, uterine MESSA; type: cell-based; conditions: Homo sapiens, MES-SA
Method: as §1, §2, §3, §4, §5, §6, §7

[1] = S-(1) pharmacokinetics in mouse, plasma and brain levels after single IV dose; type: in vivo, CD-1 mice; conditions: single IV 20 mg/kg; for AUC(0-inf) / AUC(0-t) / Cmax / MRT: CD-1, mouse
Method: S-(1) Pharmacokinetic Data in Mouse Model:
The formulated drug was administered as a single IV bolus via tail vein injection.
Sample Collection timing: Terminal blood (plasma) and brain specimens were collected at 9 times post-dose, with 4 mice per sample time. Sample collection times: 5, 15 min., 2, 8, 24, 32, 48, 72 and 96 hr post-dose (4 mice per sample time).
Blood collection: A terminal blood sample was collected from each mouse via cardiac puncture. The whole blood was collected on wet ice, spun down immediately (at 4° C.), and plasma stored frozen at −20° C. until analysis. The anticoagulant used was K2EDTA. Brain Sample Collection: Whole brains were removed by dissection. Brains were collected on wet ice, weighed, and stored at −20° C.

[2] = Central nervous system (CNS) safety study in rats; type: in vivo, male Sprague Dawley rats
Method: Toxicology. Central Nervous System (CNS) Safety Study in Rats:
This study was conducted at ClinTrials BioResearch (CTBR, Montreal, Quebec, Canada) as a GLP study.
All animals were observed twice daily for signs of ill health or reaction to treatment, except on day of arrival and necropsy. A Functional Observation Battery (FOB) assessment, along with grip strength, hind limb splay and body temperature measurements were performed for all animals once pre-dose and at approximately 15 minutes, 1 hour, 4 hours, 8 hours and 24 hours post-dose. After the last observation, all animals were euthanized without further examination.

[3] = Phase 1 Study S-(1)-02 plasma pharmacokinetics (every 21 days); type: in vivo, human; conditions: for half-life / AUC(0-t): human, plasma; for AUC(0-t): read-out: AUC0-24
Description: Both trials have enrolled patients with advanced solid tumors, non-Hodgkin's lymphoma or Hodgkin's lymphoma that have recurred or progressed following at least standard therapy; patients with malignancies for which there is no standard therapy; patients who are not candidates for standard therapy; or patients who have chosen not to pursue standard therapy. […] Study S-(1)-01 is currently being conducted in the United States. […] Study S-(1)-02 is currently being conducted in the United States and in Israel.
Plasma pharmacokinetics of S-(1) were assessed following the first dose of S-(1) in both studies. Plasma samples were analyzed for S-(1) using a validated LC/MS-MS method.

[4] = Crossing of rat blood-brain barrier (FIG. 1); type: in vivo
[5] = 56 mg/m^2 i.v., first dose, 15:85 Cremophor EL-P/ethanol formulation
[6] = 84 mg/m^2 i.v., first dose, 15:85 Cremophor EL-P/ethanol formulation
[7] = 126 mg/m^2 i.v., first dose, 15:85 Cremophor EL-P/ethanol formulation
[8] = 185 mg/m^2 i.v., first dose, 15:85 Cremophor EL-P/ethanol formulation

In the case of `C=C[C@H]1O[C@H]2C[C@H]3OC[C@@]3(OC(C)=O)[C@H]3[C@H](OC(=O)c4ccccc4)[C@]4(C(C)(C)O)CC(OC(=O)[C@H](O)C(CC(C)C)NC(=O)OC(C)(C)C)C(C)=C4[C@H](OC(C)=O)[C@H](O1)[C@]23C` (stereo partly drawn) [S-(1)], the IC50 (SKNAS) is reported as 11 nM, the IC50 (FADU) is reported as 21 nM and the IC50 (DU145) is reported as 60 nM. The IC50 (KB) was 9.4 nM, the IC50 (MESSA) was 2.9 nM and the AUC(0-inf) ([1]; Brain) was 88700 ng·h/mL. The AUC(0-t) ([1]; Brain) was 65000 ng·h/mL, the Cmax ([1]; Brain) was 3730 ng/mL and the MRT ([1]; Brain) was 42.5 h. The AUC(0-inf) ([1]; Plasma) was 17000 ng·h/mL, the AUC(0-t) ([1]; Plasma) was 16900 ng·h/mL and the Cmax ([1]; Plasma) was 1550 ng/mL. For the same molecule, the MRT ([1]; Plasma) was 17.6 h, the blood-brain barrier passage ([1]; mouse model) was “not impeded by the blood-brain barrier” and the “deaths or treatment-related clinical signs” value ([2]; single intravenous 6.25, 12.5 or 25 mg/kg) was “no deaths or treatment-related clinical signs”. For the same molecule, the “biological effect on central nervous system (FOB, grip strength, hind limb splay, body temperature)” value ([2]; single intravenous 6.25, 12.5 or 25 mg/kg, 15 minutes, 1, 4, 8 and 24 hours post-dose) was “no biological effects”, the “no adverse effect level” value ([2]; single intravenous injection) was 25 mg/kg and the Cl [3, 5] was 18.9 ± 9.53 L/hr/m^2. It also gave a Vss [3, 5] of 232 ± 93.6 L/m^2, a Cl [3, 6] of 15.4 L/hr/m^2 and a Vss [3, 6] of 300 L/m^2. For the same molecule, the Cl [3, 7] was 22.1 ± 11.2 L/hr/m^2, the Vss [3, 7] was 166 ± 105 L/m^2 and the t1/2 [3, 7] was 6.27 ± 3.64 h. It also gave a Cl [3, 8] of 24.7 ± 12.2 L/hr/m^2, a Vss [3, 8] of 215 ± 116 L/m^2 and a half-life ([3]; intravenous, S-(1)-02 study, all dose groups, read-out: Plasma t1/2 values, range over dose groups) of 3.43 to 8.96 h. For the same molecule, the AUC(0-t) ([3]; iv, 56 mg/m2, 56 mg/m^2 i.v., first dose, 15:85 Cremophor EL-P/ethanol formulation) was 2530 ± 847 ng·h/mL, the half-life ([3]; iv, 56 mg/m2, 56 mg/m^2 i.v., first dose, 15:85 Cremophor EL-P/ethanol formulation, read-out: t1/2 (converted)) was 8.96 ± 7.09 h and the AUC(0-t) ([3]; iv, 84 mg/m2, 84 mg/m^2 i.v., first dose, 15:85 Cremophor EL-P/ethanol formulation) was 3710 ng·h/mL. For the same molecule, the AUC(0-t) ([3]; iv, 126 mg/m2, 126 mg/m^2 i.v., first dose, 15:85 Cremophor EL-P/ethanol formulation) was 6110 ± 3030 ng·h/mL, the half-life ([3]; iv, 126 mg/m2, 126 mg/m^2 i.v., first dose, 15:85 Cremophor EL-P/ethanol formulation, read-out: t1/2 (converted)) was 10.6 ± 7.1 h and the AUC(0-t) ([3]; iv, 185 mg/m2, 185 mg/m^2 i.v., first dose, 15:85 Cremophor EL-P/ethanol formulation) was 7260 ± 2620 ng·h/mL. For the same molecule, the half-life ([3]; iv, 185 mg/m2, 185 mg/m^2 i.v., first dose, 15:85 Cremophor EL-P/ethanol formulation, read-out: t1/2 (converted)) was 3.43 ± 7.31 h and the “crossing of blood-brain barrier” value [4] was “crosses rat blood-brain barrier”.
